The source of these data is patent US8404856B2, “Non-nucleoside reverse transcriptase inhibitors” (Merck Sharp & Dohme Corp., priority 2007, dated 2013).

Where two headings read alike, the source gives them in different places.

Series [1] concerns the target HIV-1 RT enzyme (wild-type) (Human immunodeficiency virus type 1 group M subtype B, UniProt P04585). Nature of the series: ECL assay for inhibition of HIV reverse transcriptase (WT). It counts as biochemical. The procedure: (§1) 100 μL reaction mixtures were initiated with a combination of primer-template substrate (10 nM final concentration) and dNTPs (0.6 μM dNTPs, 1.25 μM BrdUTP). The heterodimeric nucleic acid substrate was generated by annealing the DNA primer pD500 (described in Shaw-Reid et al., J. Biol. Chem., 278: 2777-2780; obtained from Integrated DNA Technologies) to t500, a 500 nucleotide RNA template created by in vitro transcription (see Shaw-Reid et al., J. Biol. Chem., 278: 2777-2780). After 1 hour incubation at 37° C., reactions were quenched by 10 μL of 1 N NaOH. Microtiter plates were incubated for an additional 30 minutes at room temperature and then neutralized with 10 μL of 1 N HCl. A mixture of detection buffer containing ruthenylated anti-BrdU antibody and streptavidin coated magnetic beads were added to the plate and incubated at room temperature for 1.5 hours prior to quantification via electrochemiluminescence instrument.

The target of series [2] is T1, HIV reverse transcriptase with the K103N mutation (Human immunodeficiency virus type 1 group M subtype B, UniProt P04585, K690N).
T1 construct: made in house
Nature of the series: ECL assay for inhibition of mutant HIV reverse transcriptase (K103N). Type of series: biochemical, HIV-1. The procedure:
as §1
(§2) Analogous assays were conducted substituting mutant HIV strains to determine the […] inhibition of compounds of the present invention against mutant HIV reverse transcriptase. In one strain the reverse transcriptase has the Y181C mutation and in the other strain the reverse transcriptase has the K103N mutation. The mutations were generated with the […] site-directed mutagenesis kit (Stratagene).

Series [3] deals with T2, HIV reverse transcriptase with the Y181C mutation (Human immunodeficiency virus type 1 group M subtype B, UniProt P04585, Y768C).
T2 construct: made in house
Put plainly: ECL assay for inhibition of mutant HIV reverse transcriptase (Y181C). Type of series: biochemical, HIV-1. The procedure: as §1, §2

A further series relates to wild type HIV-1. Nature of the series: Spread assay: inhibition of acute HIV-1 infection of T-lymphoid cells (WT). Type of series: cell-based. To be noted: Human immunodeficiency virus 1, T-lymphoid; wild type HIV-1, 10% FBS; read-out: Spread (WT) CIC95 (10% FBS). On the procedure:
(§3) Assays for the inhibition of acute HIV-1 infection of T-lymphoid cells (alternatively referred to herein as the “spread assay”) were conducted in accordance with Vacca, J. P. et al., Proc. Natl. Acad. Sci. USA 1994, 91: 4096. The assays tested for inhibition of wild type HIV-1 and of HIV strains containing the Y181C or K103N mutation. […] Table C also reports the CIC95 values of certain of the title compounds of Examples 1-25 obtained in the assays employing the Y181C mutant strain and the K103N mutant strain.

The subject of series [4] is HIV strain containing the K103N mutation. Nature of the series: Spread assay: inhibition of acute HIV-1 infection of T-lymphoid cells (K103N). It counts as cell-based. To be noted: Human immunodeficiency virus 1, T-lymphoid, read-out: Spread (K103N) CIC95 (10% FBS). The procedure: as §3
In series [5] the test system is HIV strain containing the Y181C mutation. Put plainly: Spread assay: inhibition of acute HIV-1 infection of T-lymphoid cells (Y181C). Type of series: cell-based. To be noted: Human immunodeficiency virus 1, T-lymphoid, read-out: Spread (Y181C) CIC95 (10% FBS). The procedure:
as §3

A further series concerns T-lymphoid cells. Type of series: cell-based. On the procedure:
Cytotoxicity was determined by microscopic examination of the cells in each well in the spread assay, wherein a trained analyst observed each culture for any of the following morphological changes as compared to the control cultures: pH imbalance, cell abnormality, cytostatic, cytopathic, or crystallization (i.e., the compound is not soluble or forms crystals in the well). The toxicity value assigned to a given compound is the lowest concentration of the compound at which one of the above changes is observed.

[6] abbreviates: wild-type HIV-1 RT, read-out: ECL Assay (WT) IC50.
Where [7] appears, read: K103N mutant RT, read-out: ECL Assay (K103N) IC50.
[8] abbreviates: Y181C mutant RT, read-out: ECL Assay (Y181C) IC50.

As a reminder, the IC50 is the point on the concentration scale where inhibition reaches its midpoint. Consider `Cl.Nc1ccc2c(Cn3ccc(C(F)(F)F)c(Oc4cc(Cl)cc(Cl)c4)c3=O)n[nH]c2n1` [Compound 20-3, 3-{[3-(3,5-dichlorophenoxy)-2-oxo-4-(trifluoromethyl)pyridin-1(2H)-yl]methyl}-1H-pyrazolo[3,4-b]pyridin-6-aminium chloride], for which the 50% inhibitory concentration (IC50) in series [1] turned out to be 1.6 nM; in series [2] it was 5.9 nM; in series [3], 1.6 nM. Besides, the IC95 with wild type HIV-1 was determined as 20 nM; in series [4], 87 nM; in series [5] it was 169 nM. Moreover, the “Cytotoxicity: no cytotoxicity at concentrations up to” value (“Cytotoxicity: no cytotoxicity” for short) in the series with T-lymphoid cells is listed as above 833 nM.
`O=c1c(Oc2cc(Cl)cc(Cl)c2)c(C(F)(F)F)ccn1Cc1n[nH]c2ncccc12` [Compound 19-4, 3-(3,5-dichlorophenoxy)-1-(1H-pyrazolo[3,4-b]pyridin-3-ylmethyl)-4-(trifluoromethyl)pyridin-2(1H)-one]: the IC50 in series [1] (setting [6]) turned out to be 1.1 nM; in series [2] (setting [7]), 2.1 nM; in series [3] (setting [8]), 1.5 nM. The IC95 in the series with wild type HIV-1 amounted to 9 nM; in series [4] it was 21 nM; in series [5], 48 nM. Also, the “Cytotoxicity: no cytotoxicity” value in the series on T-lymphoid cells is recorded as above 833 nM.
For `N#Cc1cc(Cl)cc(Oc2cc(Cc3n[nH]c4ncccc34)[nH]c(=O)c2Cl)c1` [Compound 24-7, 3-Chloro-5-{[3-chloro-2-oxo-6-(1H-pyrazolo[3,4-b]pyridin-3-ylmethyl)-1,2-dihydropyridin-4-yl]oxy}benzonitrile], the half-inhibitory concentration (IC50) in series [1] (setting [6]) is 0.9 nM; in series [2] (setting [7]), 1.7 nM; in series [3] (setting [8]) it was 1 nM. The IC95 with wild type HIV-1 was 2.4 nM; in series [4], 13 nM; in series [5], 6.6 nM. Further, the “Cytotoxicity: no cytotoxicity” value in the series with T-lymphoid cells is above 833 nM.
Regarding `N#Cc1cc(Cl)cc(Oc2c(F)c(NCc3n[nH]c4ncccc34)nc(F)c2Cl)c1` [Compound 10-4, 3-chloro-5-({3-chloro-2,5-difluoro-6-[(1H-pyrazolo[3,4-b]pyridin-3-ylmethyl)amino]pyridin-4-yl}oxy)benzonitrile], the half-maximal inhibitory concentration (IC50) in series [1] (setting [6]) was found to be 0.5 nM; in series [2] (setting [7]) it was 3.2 nM; in series [3] (setting [8]) it was 0.6 nM. Besides, the IC95 in the series on wild type HIV-1 came to 28 nM; in series [4] it was 62 nM; in series [5], 46 nM. Further, the “Cytotoxicity: no cytotoxicity” value in the series on T-lymphoid cells is reported as above 833 nM.
For the compound `N#Cc1cc(Cl)cc(Oc2cc(CCc3n[nH]c4ncccc34)[nH]c(=O)c2)c1` [Compound 3-9, 3-chloro-5-({2-oxo-6-[2-(1H-pyrazolo[3,4-b]pyridin-3-yl)ethyl]-1,2-dihydropyridin-4-yl}oxy)benzonitrile], the IC50 in series [1] (setting [6]) was 3.8 nM; in series [2] (setting [7]) it was 32 nM; in series [3] (setting [8]), 11 nM. Further, the IC95 in the series on wild type HIV-1 stood at 55 nM; in series [4], 320 nM; in series [5], 360 nM. For the same compound, the “Cytotoxicity: no cytotoxicity” value with T-lymphoid cells is listed as above 833 nM.
Turning to `N#Cc1cc(Cl)cc(Oc2nc(NCc3n[nH]c4nc(N)ccc34)c(Cl)cc2F)c1` [Compound 2-7, 3-[(6-{[(6-amino-1H-pyrazolo[3,4-b]pyridin-3-yl)methyl]amino}-5-chloro-3-fluoropyridin-2-yl)oxy]-5-chlorobenzonitrile], the IC50 in series [1] (setting [6]) amounted to 0.5 nM; in series [2] (setting [7]), 0.6 nM; in series [3] (setting [8]), 1 nM. Also, the IC95 in the series on wild type HIV-1 amounted to 3 nM; in series [4] it was 28 nM; in series [5] it was 14 nM. Further, in the series on T-lymphoid cells, the “Cytotoxicity: no cytotoxicity” value is listed as above 833 nM.
Turning to `N#Cc1cc(Cl)cc(Oc2cc(CCc3n[nH]c4nc(N)ccc34)[nH]c(=O)c2Cl)c1` [Compound 4-4, 3-({6-[2-(6-amino-1H-pyrazolo[3,4-b]pyridin-3-yl)ethyl]-3-chloro-2-oxo-1,2-dihydropyridin-4-yl}oxy)-5-chlorobenzonitrile], the figures for the IC50 in series [1] (setting [6]), in series [2] (setting [7]) and in series [3] (setting [8]) were 1.6 nM, 14 nM and 7.9 nM, respectively. Further, the IC95 was 39 nM in the series with wild type HIV-1, 207 nM in series [4] and 438 nM in series [5]. Also, the “Cytotoxicity: no cytotoxicity” value with T-lymphoid cells was above 833 nM.
